Measured values: patent US8173636B2, “Hydroxylthienoquinolones and related compounds as anti-infective agents” (Achillion Pharmaceuticals, Inc., priority 2009, dated 2012)
Values after ≈ are worked out from the molar mass of the structure shown. Where two headings read alike, the source gives them in different places.

Columns and labels:
[1] = system: S. aureus ATCC 29213; assay: Minimum inhibitory concentration (MIC) assay, broth microdilution, MSSA; assay type: cell-based; conditions: Staphylococcus aureus, Table I
Experimental: (§1) The antimicrobial activity of the compounds of the invention may be evaluated by a number of methods, including the following visual minimum inhibitory concentration (MIC) assay. This assay determines the minimum concentration of compound required to inhibit growth of a bacterial strain.
(§2) Whole-cell antibacterial activity is determined by broth microdilution using conditions recommended by the NCCLS (see National Committee for Clinical Laboratory Standards. 2001. Performance standards for antimicrobial susceptibility testing: 11th informational supplement. Vol. 21, no. 1, M100-S11. National Committee for Clinical Laboratory Standards, Wayne, Pa.). Test compounds are dissolved in DMSO and diluted 1:50 in Mueller-Hinton II broth (Becton-Dickinson) to produce a 256 μg/ml stock solution. In a 96-well microtiter plate, the compound solution is serially two-fold diluted in Mueller-Hinton II broth. After the compounds are diluted, a 50 μl aliquot of the test organism (˜1×10^6 cfu/mL) is added to each well of the microtiter plate. The final test concentrations ranges from 0.125-128 μg/mL. Inoculated plates are incubated in ambient air at 37° C. for 18 to 24 hours. The organisms selected for testing included laboratory strains S. aureus ATCC 29213 and E. coli ATCC 25922 (strains purchased from American Type Culture Collection, Manassas, Va.) m, S. aureus FQR700699, and Paeruginosa 27853. The minimum inhibitory concentration (MIC) is determined as the lowest concentration of compound that inhibited visible growth of the test organism.

[2] = system: fluoroquinolone-resistant S. aureus ATCC 700699; assay: Minimum inhibitory concentration (MIC) assay, broth microdilution, MRSA; assay type: cell-based; conditions: Staphylococcus aureus
Experimental: as §1, §2

[3] = system: Hep2; assay: Cell viability staining with Alamar Blue (compound cytotoxicity); assay type: cell-based, human; conditions: Table II, comparison of R2 acetyl vs cyano
Experimental: To determine whether the microcidal effect observed against S. aureus and E. coli is specific to bacterial cells, compounds are screened for cell viability effects on several human cell types. Optimal cell density is first determined by plating cells in a 96-well plate standard sterile tissue culture plates in 100 μl media, 10% FBS at six cell densities from 500 cells/well to 15,000 cells/well. A cell free well containing only media is used as a control. Cells are incubated at 37° C. in a 5% CO2 incubator for 24 hours. 10% culture volume (10 ul) of Alamar Blue (Biosource, DAL1100, 100 mL) is then added. Cells are incubated at 37° C. in a 5% CO2 incubator and read in a Victor V plate reader, 544 nm excitation, 590 nm emission, at 3, 4, and 24 hours after the addition of Alamar Blue. The cell number vs. change in fluorescence is plotted to determine linearity of signal vs. cell number. The optimal density varies between 500-15,000 cells/well depending on the specific cell type. The optimal density is selected based on the highest number of cells that is still in the linear response range. Cells are plated at optimal cell density in a standard sterile tissue culture 96 well plate, and incubated at 37° C., O/N in a 5% CO2 incubator. 12 to 48 hours post-plating media is removed. The cells are washed 1 or 2 times with 1×PBS and replaced with fresh media containing the test compound in 1% DMSO. 24 to 72 hours after addition of compound, the media is removed, and the cells washed 1 to 2 times with 1×PBS. Fresh media containing 1/10 volume of Alamar Blue is then added. Plates are incubated 4 hours at 37° C. in a 5% CO2 incubator and read in a Victor V plate reader, 544 nm excitation, 590 nm emission. Compounds are diluted to 20 micromolar in 1% DMSO and media and screened in duplicate to obtain single concentration cytotoxicity data. Eight concentration points from 0.78 micromolar to 100 micromolar, run in duplicate, are used to determine cyclotoxicity CC50 values. Cells with 1% DMSO and media are used as a negative control, compounds having a known CC50 against a particular cell type are used as positive controls. The change in fluorescence vs. concentration of test compound is plotted to determine the cytotoxicity of the compound.

[4] = Table II, comparison of R2 acetyl vs cyano, read-out: MRSA
[5] = fluoroquinolone-resistant S. aureus ATCC 700699, Table I, read-out: MRSA MIC

SMILES	MIC [1]	MIC [2, 4]	MIC [2, 5]	Cytoxicity [3]
COc1c(N2CCCC(CN)C2)c(F)cc2c(=O)c3c(O)c(C(C)=O)sc3n(C3CC3)c12 (centres unmarked) [Cmp 64, 2-acetyl-7-(3-(aminomethyl)piperidin-1-yl)-9-cyclopropyl-6-fluoro-3-hydroxyl-8-methoxythieno [2,3-b]quinolin-4(9H)-one]	0.13 µg/mL (≈ 0.283 µM)	0.25 µg/mL (≈ 0.544 µM)	0.25 µg/mL (≈ 0.544 µM)	19 µM
COc1c(N2CCNCC2)c(F)cc2c(=O)c3c(n(C4CC4)c12)SC(C#N)C3=O (centres unmarked) [Cmp 9, 9-cyclopropyl-6-fluoro-3-hydroxyl-8-methoxy-4-oxo-7-(piperazin-1-yl)-4,9-dihydrothieno[2,3-b]quinoline-2-carbonitrile]	–	0.75 µg/mL (≈ 1.81 µM)	–	9 µM
COc1c(N2CC[C@@H](CN)C2)c(F)cc2c(=O)c3c(O)c(C#N)sc3n(C3CC3)c12 [Cmp 59, (S)-7-(3-(aminomethyl)pyrrolidin-1-yl)-9-cyclopropyl-6-fluoro-3-hydroxyl-8-methoxy-4-oxo-dihydrothieno[2,3-b] quinoline-2-carbonitrile]	0.02 µg/mL (≈ 0.0467 µM)	0.03 µg/mL (≈ 0.07 µM)	< 0.03 µg/mL	0.06 µM
COc1c(N2CC[C@@H](C(C)(C)N)C2)c(F)cc2c(=O)c3c(O)c(C(C)=O)sc3n(C3CC3)c12 [Cmp 58, (R)-2-acetyl-7-(3-(2-aminopropan-2-yl)pyrrolidin-1-yl)-9-cyclopropyl-6-fluoro-3-hydroxyl-8-methoxythieno [2,3-b]quinolin-4(9H)-one]	0.13 µg/mL (≈ 0.275 µM)	0.25 µg/mL (≈ 0.528 µM)	0.25 µg/mL (≈ 0.528 µM)	20 µM
COc1c(N2CC[C@@H](CN)C2)c(F)cc2c(=O)c3c(O)c(C(C)=O)sc3n(C3CC3)c12 [Cmp 60, (S)-2-acetyl-7-(3-(aminomethyl)pyrrolidin-1-yl)-9-cyclopropyl-6-fluoro-3-hydroxyl-8-methoxythieno [2,3-b]quinolin-4(9H)-one]	0.06 µg/mL (≈ 0.135 µM)	0.06 µg/mL (≈ 0.135 µM)	0.06 µg/mL (≈ 0.135 µM)	11 µM
COc1c(N2CC[C@@H](C(C)(C)N)C2)c(F)cc2c(=O)c3c(n(C4CC4)c12)SC(C#N)C3=O (stereo partly drawn) [Cmp 10, (R)-7-(3-(2-aminopropan-2-yl)pyrrolidin-1-yl)-9-cyclopropyl-6-fluoro-3-hydroxyl-8-methoxy-4-oxo-4,9-dihydrothieno [2,3-b]quinoline-2-carbonitrile]	–	0.09 µg/mL (≈ 0.197 µM)	–	2 µM
COc1c(N2CCCC(CN)C2)c(F)cc2c(=O)c3c(O)c(C#N)sc3n(C3CC3)c12 (centres unmarked) [Cmp 63, 7-(3-(aminomethyl)piperidin-1-yl)-9-cyclopropyl-6-fluoro-3-hydroxyl-8-methoxy-4-oxo-dihydrothieno[2,3-b] quinoline-2-carbonitrile]	0.03 µg/mL (≈ 0.0678 µM)	0.13 µg/mL (≈ 0.294 µM)	0.13 µg/mL (≈ 0.294 µM)	0.4 µM
COc1c(N2CCNCC2)c(F)cc2c(=O)c3c(O)c(C(C)=O)sc3n(C3CC3)c12 [Cmp 57, 2-acetyl-9-cyclopropyl-6-fluoro-3-hydroxyl-8-methoxy-7-(piperazin-1-yl)thieno[2,3-b]quinolin-4(9H)-one]	0.25 µg/mL (≈ 0.579 µM)	1 µg/mL (≈ 2.32 µM)	1 µg/mL (≈ 2.32 µM)	57 µM
COc1c(N2CC[C@@H](C(C)(C)N)C2)c(F)cc2c(=O)c3c(O)c([N+](=O)[O-])sc3n(C3CC3)c12 [Cmp 13, (R)-7-(3-(2-aminopropan-2-yl)pyrrolidin-1-yl)-9-cyclopropyl-6-fluoro-3-hydroxyl-8-methoxy-2-nitrothieno[2,3-b] quinolin-4(9H)-one]	8 µg/mL (≈ 16.8 µM)	–	32 µg/mL (≈ 67.2 µM)	–
COc1c(N2CC3CC2CN3)c(F)cc2c(=O)c3c(O)c(C#N)sc3n(C3CC3)c12 (centres unmarked) [Cmp 41, 7-(2,5-diazabicyclo[2.2.1]heptan-2-yl)-9-cyclopropyl-6-fluoro-3-hydroxyl-8-methoxy-4-oxo-4,9-dihydrothieno [2,3-b]quinoline-2-carbonitrile]	0.13 µg/mL (≈ 0.305 µM)	–	1 µg/mL (≈ 2.34 µM)	–
COc1c(N2CCNCC2)c(F)cc2c(=O)c3c(O)c(C(=O)C(F)(F)F)sc3n(C3CC3)c12 [Cmp 20, 9-cyclopropyl-6-fluoro-3-hydroxyl-8-methoxy-7-(piperazin-1-yl)-2-(2,2,2-trifluoroacetyl)thieno[2,3-b]quinolin-4(9H)-one]	64 µg/mL (≈ 132 µM)	–	> 64 µg/mL	–
COC(=O)c1sc2c(c1O)c(=O)c1cc(F)c(N3CCNCC3)c(OC)c1n2C1CC1 [Cmp 7, methyl 9-cyclopropyl-6-fluoro-3-hydroxyl-8-methoxy-4-oxo-7-(piperazin-1-yl)-4,9-dihydrothieno[2,3-b] quinoline-2-carboxylate]	3 µg/mL (≈ 6.7 µM)	–	32 µg/mL (≈ 71.5 µM)	–
COc1c(N2CC[C@@H](C(C)(C)NCCC#N)C2)c(F)cc2c(=O)c3c(n(C4CC4)c12)SC(C#N)C3=O (stereo partly drawn) [Cmp 49, 7-((R)-3-(2-(2-cyanoethylamino)propan-2-yl)pyrrolidin-1-yl)-9-cyclopropyl-6-fluoro-8-methoxy-3,4-dioxo-2,3,4,9-tetrahydrothieno[2,3-b]quinoline-2-carbonitrile]	0.06 µg/mL (≈ 0.118 µM)	–	0.5 µg/mL (≈ 0.981 µM)	–
COc1c(N2CC[C@@H]([C@H](C)NCCF)C2)c(F)cc2c(=O)c3c(O)c(C#N)sc3n(C3CC3)c12 [Cmp 1, 9-cyclopropyl-6-fluoro-7-((R)-3-((S)-1-(2-fluoroethylamino)ethyl)pyrrolidin-1-yl)-3-hydroxyl-8-methoxy-4-oxo-4,9-dihydrothieno[2,3-b]quinoline-2-carbonitrile]	0.02 µg/mL (≈ 0.0409 µM)	–	0.13 µg/mL (≈ 0.266 µM)	–
CCNC(C)(C)[C@@H]1CCN(c2c(F)cc3c(=O)c4c(O)c(C#N)sc4n(C4CC4)c3c2OC)C1 [Cmp 35, (R)-9-cyclopropyl-7-(3-(2-(ethylamino)propan-2-yl)pyrrolidin-1-yl)-6-fluoro-3-hydroxyl-8-methoxy-4-oxo-4,9-dihydrothieno [2,3-b]quinoline-2-carbonitrile]	0.06 µg/mL (≈ 0.124 µM)	–	0.5 µg/mL (≈ 1.03 µM)	–
COc1c(N2CC[C@@H](C(C)(C)N)C2)ccc2c(=O)c3c(O)c(C#N)sc3n(C3CC3)c12 [Cmp 2, (R)-7-(3-(2-aminopropan-2-yl)pyrrolidin-1-yl)-9-cyclopropyl-3-hydroxyl-8-methoxy-4-oxo-4,9-dihydrothieno[2,3-b]quinoline-2-carbonitrile]	0.06 µg/mL (≈ 0.137 µM)	–	0.42 µg/mL (≈ 0.958 µM)	–
